Measured values from patent publication US20260265233A1, “BENZOTHIOPHENE DERIVATIVES AS RXFP1 AGONISTS” (BRISTOL-MYERS SQUIBB COMPANY, priority 2021, published 2026).

Each molecule was assayed against T1, human RXFP1 (Homo sapiens, UniProt Q9HBX9) (assay: hRXFP1 HEK293 cAMP assay (HTRF)). Details: HEK293 cells stably expressing human RXFP1; 30 min at rt; intracellular cAMP by HTRF.
T1 construct: expressed in transfected cells
T1 sequence (Q9HBX9 1-757): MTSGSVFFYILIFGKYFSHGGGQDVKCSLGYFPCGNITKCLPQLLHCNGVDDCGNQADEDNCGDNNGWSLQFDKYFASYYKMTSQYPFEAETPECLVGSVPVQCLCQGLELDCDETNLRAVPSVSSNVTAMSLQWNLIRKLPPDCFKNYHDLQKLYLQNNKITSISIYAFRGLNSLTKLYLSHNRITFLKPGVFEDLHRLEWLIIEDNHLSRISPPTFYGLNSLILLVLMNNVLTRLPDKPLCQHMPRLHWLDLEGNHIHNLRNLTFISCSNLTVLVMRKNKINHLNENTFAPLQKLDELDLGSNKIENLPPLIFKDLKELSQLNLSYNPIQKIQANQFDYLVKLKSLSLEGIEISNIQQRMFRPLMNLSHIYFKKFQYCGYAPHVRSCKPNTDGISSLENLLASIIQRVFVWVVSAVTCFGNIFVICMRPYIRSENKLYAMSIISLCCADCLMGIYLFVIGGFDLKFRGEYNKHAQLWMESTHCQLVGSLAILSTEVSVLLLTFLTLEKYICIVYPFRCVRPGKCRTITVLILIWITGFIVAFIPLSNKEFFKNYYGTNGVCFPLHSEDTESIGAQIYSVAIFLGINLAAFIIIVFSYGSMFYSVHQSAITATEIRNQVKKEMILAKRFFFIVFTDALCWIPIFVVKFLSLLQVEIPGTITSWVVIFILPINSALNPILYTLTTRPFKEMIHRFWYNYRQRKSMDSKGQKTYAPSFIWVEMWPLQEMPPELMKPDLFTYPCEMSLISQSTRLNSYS
Assay type: cell-based
Method in brief: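 Agonism is measured as cAMP by HTRF, quantified from a standard curve via the 665/590 nm ratio and fitted with a four-parameter logistic equation. Compounds (0.010 nM to 50 μM final, 2% DMSO) were applied for 30 min at rt to human RXFP1-expressing HEK293 cells in assay buffer containing 0.5 mM IBMX.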
With `COc1ccc(C2CCN(CCS(C)(=O)=O)C2)cc1C(=O)Nc1c(C(=O)Nc2ccc(F)c(C(F)(F)F)c2)sc2cc(C(F)(F)F)ccc12` (single isomer, unassigned) [Example 153, N-(4-fluoro-3-(trifluoromethyl)phenyl)-3-(2-methoxy-5-(1-(2-(methylsulfonyl)ethyl)pyrrolidin-3-yl)benzamido)-6-(trifluoromethyl) benzo[b] thiophene-2-carboxamide] the EC50 was 314 nM. `COc1ccc(C(=O)NCCS(C)(=O)=O)cc1C(=O)Nc1c(C(=O)Nc2ccc(F)c(C(F)(F)F)c2)sc2cc(C(F)(F)F)ccc12` [Example 232, N3-(2-((4-fluoro-3-(trifluoromethyl)phenyl)carbamoyl)-6-(trifluoromethyl)benzo[b]thiophen-3-yl)-4-methoxy-N1-(2-(methylsulfonyl)ethyl) isophthalamide] showed an EC50 of 4840 nM. Work on `COc1ccc(C2CCN(C(=O)C(F)F)C2)cc1C(=O)Nc1c(C(=O)Nc2ccc(F)c(C(F)(F)F)c2)sc2cc(C(F)(F)F)ccc12` (centres unmarked) [Example 145, 3-(5-(1-(2,2-difluoroacetyl)pyrrolidin-3-yl)-2-methoxy-benzamido)-N-(4-fluoro-3-(trifluoromethyl)phenyl)-6-(trifluoromethyl) benzo[b] thiophene-2-carboxamide] yielded an EC50 of 1650 nM. With `COc1ccc(-c2cc(C(=O)O)ccc2F)cc1C(=O)Nc1c(C(=O)Nc2ccc(F)c(C(F)(F)F)c2)sc2ncccc12` [Example 289, 6-fluoro-3′-[(2-{[4-fluoro-3-(trifluoromethyl)phenyl]carbamoyl}thieno[2,3-b]pyridin-3-yl)carbamoyl]-4′-methoxy-[1,1′-biphenyl]-3-carboxylic acid] the EC50 was 2050 nM. `COc1ccc(C2CC2C(=O)NC2CCOCC2)cc1C(=O)Nc1c(C(=O)Nc2ccc(F)c(C(F)(F)F)c2)sc2cc(C(F)(F)F)ccc12` (single isomer, unassigned) [Example 157, N-[4-fluoro-3-(trifluoromethyl)phenyl]-3-(2-methoxy-5-{2-[(oxan-4-yl)carbamoyl]cyclopropyl}benzamido)-6-(trifluoromethyl)-1-benzothiophene-2-carboxamide] gave an EC50 of 1040 nM. `COC(=O)C(=O)N1CCCC(c2ccc(OC)c(C(=O)Nc3c(C(=O)Nc4ccc(F)c(C(F)(F)F)c4)sc4cc(C(F)(F)F)ccc34)c2)C1` (centres unmarked) [Example 94, methyl 2-(3-(3-((2-((4-fluoro-3-(trifluoromethyl)phenyl)carbamoyl)-6-(trifluoromethyl)benzo[b]thiophen-3-yl)carbamoyl)-4-methoxyphenyl)piperidin-1-yl)-2-oxoacetate] was tested, and the EC50 was 245 nM. Molecule `COc1ccc(C(=O)NCC(C)(C)S(C)(=O)=O)cc1C(=O)Nc1c(C(=O)Nc2ccc(F)c(C(F)(F)F)c2)sc2cc(C(F)(F)F)ccc12` [Example 203, N3-(2-{[4-fluoro-3-(trifluoromethyl)phenyl]carbamoyl}-6-(trifluoromethyl)-1-benzothiophen-3-yl)-N1-(2-methanesulfonyl-2-methylpropyl)-4-methoxybenzene-1,3-dicarboxamide] has an EC50 of 36.1 nM. `COc1ccc(C2CC3(C2)CN(C(=O)CN(C)C)C3)cc1C(=O)Nc1c(C(=O)Nc2ccc(F)c(C(F)(F)F)c2)sc2cc(C(F)(F)F)ccc12` [Example 206, 3-(5-(2-(dimethylglycyl)-2-azaspiro[3.3]heptan-6-yl)-2-methoxy-benzamido)-N-(4-fluoro-3-(trifluoromethyl)phenyl)-6-(trifluoromethyl) benzo[b] thiophene-2-carboxamide] was tested, and the EC50 was 2080 nM. `COc1ncc(N2CCCC(CO)C2)cc1C(=O)Nc1c(C(=O)Nc2ccc(F)c(C(F)(F)F)c2)sc2cc(C(F)(F)F)ccc12` (centres unmarked) [Example 11, N-(2-((4-fluoro-3-(trifluoromethyl)phenyl)carbamoyl)-6-(trifluoromethyl)benzo[b]thiophen-3-yl)-5-(3-(hydroxymethyl)piperidin-1-yl)-2-methoxynicotinamide] showed an EC50 of 2540 nM. With `COc1ccc(S(=O)(=O)N2CCC[C@@H](N)C2)cc1C(=O)Nc1c(C(=O)Nc2ccc(F)c(C(F)(F)F)c2)sc2cc(C(F)(F)F)ccc12` [Example 30, (R)-3-(5-((3-aminopiperidin-1-yl)sulfonyl)-2-methoxybenzamido)-N-(4-fluoro-3-(trifluoromethyl)phenyl)-6-(trifluoromethyl) benzo[b]thiophene-2-carboxamide] the EC50 was 2540 nM. In the case of `COc1ccc(C2CCCN(CC(O)CO)C2)cc1C(=O)Nc1c(C(=O)Nc2ccc(F)c(C(F)(F)F)c2)sc2cc(C(F)(F)F)ccc12` (centres unmarked) [Example 88, 3-(5-(1-(2,3-dihydroxypropyl)piperidin-3-yl)-2-methoxy-benzamido)-N-(4-fluoro-3-(trifluoromethyl)phenyl)-6-(trifluoromethyl) benzo[b] thiophene-2-carboxamide], the EC50 is reported as 1540 nM. `COc1ccc(C2CCN(C(=O)C3(O)CC3)C2)cc1C(=O)Nc1c(C(=O)Nc2ccc(F)c(C(F)(F)F)c2)sc2cc(C(F)(F)F)ccc12` (centres unmarked) [Example 138, N-(4-fluoro-3-(trifluoromethyl)phenyl)-3-(5-(1-(1-hydroxycyclo-propane-1-carbonyl)pyrrolidin-3-yl)-2-methoxy-benzamido)-6-(trifluoromethyl) benzo[b] thiophene-2-carboxamide] showed an EC50 of 213 nM. `COc1ccc(-n2cc(C(=O)O)cn2)cc1C(=O)Nc1c(C(=O)Nc2ccc(F)c(C(F)(F)F)c2)sc2cc(C(F)(F)F)ccc12` [Example 2, 1-(3-((2-((4-fluoro-3-(trifluoromethyl)phenyl)carbamoyl)-6-(trifluoromethyl)benzo[b]thiophen-3-yl)carbamoyl)-4-methoxyphenyl)-1H-pyrazole-4-carboxylic acid] was tested, and the EC50 was 2010 nM. `COc1ccc(C(=O)N2CC3(C2)CS(=O)(=O)C3)cc1C(=O)Nc1c(C(=O)Nc2ccc(F)c(C(F)(F)F)c2)sc2cc(C(F)(F)F)ccc12` [Example 130, 3-(5-(2,2-dioxido-2-thia-6-azaspiro[3.3]heptane-6-carbonyl)-2-methoxy-benzamido)-N-(4-fluoro-3-(trifluoromethyl)phenyl)-6-(trifluoromethyl) benzo[b] thiophene-2-carboxamide] was tested, and the EC50 was 279 nM. `COc1ccc(C2CCCN(C3COC3)C2)cc1C(=O)Nc1c(C(=O)Nc2ccc(F)c(C(F)(F)F)c2)sc2cc(C(F)(F)F)ccc12` (centres unmarked) [Example 84, N-(4-fluoro-3-(trifluoromethyl)phenyl)-3-(2-methoxy-5-(1-(oxetan-3-yl)piperidin-3-yl)benzamido)-6-(trifluoromethyl) benzo[b] thiophene-2-carboxamide] was tested, and the EC50 was 226 nM. `COc1ccc(C2CCN(C(=O)CC#N)C2)cc1C(=O)Nc1c(C(=O)Nc2ccc(F)c(C(F)(F)F)c2)sc2cc(C(F)(F)F)ccc12` (centres unmarked) [Example 146, 3-(5-(1-(2-cyanoacetyl)pyrrolidin-3-yl)-2-methoxy-benzamido)-N-(4-fluoro-3-(trifluoromethyl)phenyl)-6-(trifluoromethyl) benzo[b] thiophene-2-carboxamide] was tested, and the EC50 was 1100 nM. With `COc1ccc(C(=O)N2CC(C)(C)C2)cc1C(=O)Nc1c(C(=O)Nc2ccc(F)c(C(F)(F)F)c2)sc2cc(Cl)ncc12` [Example 240, 6-chloro-3-(5-(3,3-dimethyl-azetidine-1-carbonyl)-2-methoxy-benzamido)-N-(4-fluoro-3-(trifluoromethyl)phenyl)thieno [3,2-c]pyridine-2-carboxamide] the EC50 was 3300 nM. Work on `COc1ccc(C2CC2C(=O)N2CC(OC)C2)cc1C(=O)Nc1c(C(=O)Nc2ccc(F)c(C(F)(F)F)c2)sc2cc(C(F)(F)F)ccc12` (centres unmarked) [Example 163, N-[4-fluoro-3-(trifluoromethyl)phenyl]-3-{2-methoxy-5-[2-(3-methoxyazetidine-1-carbonyl)cyclopropyl]benzamido}-6-(trifluoromethyl)-1-benzothiophene-2-carboxamide] yielded an EC50 of 662 nM. In the case of `COc1ccc(C2CCCC(NC3COC3)C2)cc1C(=O)Nc1c(C(=O)Nc2ccc(F)c(C(F)(F)F)c2)sc2cc(C(F)(F)F)ccc12` (single isomer, unassigned) [Example 61, N-(4-fluoro-3-(trifluoromethyl)phenyl)-3-(2-methoxy-5-(3-(oxetan-3-ylamino)cyclohexyl)benzamido)-6-(trifluoromethyl) benzo[b] thiophene-2-carboxamide], the EC50 is reported as 599 nM. `COc1ccc(C2=NOC3(C2)CN(C(=O)C(C)(C)O)C3)cc1C(=O)Nc1c(C(=O)Nc2ccc(F)c(C(F)(F)F)c2)sc2cc(C(F)(F)F)ccc12` [Example 284, N-(4-fluoro-3-(trifluoromethyl)phenyl)-3-(5-(2-(2-hydroxy-2-methylpropanoyl)-5-oxa-2,6-diazaspiro[3.4]oct-6-en-7-yl)-2-methoxy-benzamido)-6-(trifluoromethyl) benzo[b] thiophene-2-carboxamide] showed an EC50 of 1300 nM.
